# Assay results reported in patent US20230321101A1, “METHODS AND USES OF HALOFUGINONE” (The Regents of the University of California, priority 2020, published 2023).
# Where two headings read alike, the source gives them in different places.
# Legend:
# [1] = test system: SARS-CoV-2 spike RNA; assay: microbe, parasite or virus in culture; assay type: cell-based; conditions: Vero E6
# [2] = test system: recombinant SARS-CoV-2 spike RBD protein binding to Hep3B cells
# [3] = test system: authentic SARS-CoV-2; assay: microbe, parasite or virus in culture; assay type: cell-based
# [4] = test system: hepcidin expression; assay: Hepcidin expression in Hep3B human hepatocytes; assay type: cell-based
# Description: FIG. 6. Hep3B—18 hr incubation.
# FIG. 7. Hep3B—24 hr incubation.
compound,measurement,setting,value
O=C(CC1NCCCC1O)Cn1cnc2cc(Br)c(Cl)cc2c1=O (racemic) [halofuginone],IC50,"[1]; Severe acute respiratory syndrome coronavirus 2, Vero C1008, read-out: IC50 of SARS-CoV-2 spike intracellular mRNA levels",34.9 nM
same,reduction of SARS-CoV-2 spike intracellular mRNA levels,[1],"more than 20,000 fold"
same,decrease of SARS-CoV-2 RBD binding compared to excipient control (DMSO),"[2]; 1 μM, 18 h",84%
same,inhibition of spike RBD protein binding with excess proline,[2]; 4 mM proline in the media,prevented the ability of halofuginone to inhibit spike RED protein binding
same,effect on spike (RBD) protein binding,[2]; listed as Halofuginone,reduced spike RBD protein binding
same,IC50,"[3]; Severe acute respiratory syndrome coronavirus 2, Vero C1008, Vero E6, excess proline in the media (4 mM), read-out: IC50 of SARS-CoV-2 infection, proline rescue experiment",210 nM
same,IC50,"[3]; Severe acute respiratory syndrome coronavirus 2, Vero C1008, Vero E6, without excess proline, read-out: IC50 of SARS-CoV-2 infection, proline rescue experiment",12.5 nM
same,IC50,"[3]; Severe acute respiratory syndrome coronavirus 2, Vero C1008, Vero E6, read-out: IC50 of SARS-CoV-2 infectivity, enantiomer comparison",28 nM
same,IC50,"[3]; Severe acute respiratory syndrome coronavirus 2, Vero C1008, read-out: IC50 of SARS-CoV-2 infection",13 nM
same,effect on authentic SARS-CoV-2 infection,[3]; Vero E6,inhibit SARS-CoV-2 infection
same,potency compared to chloroquine,[3]; Vero E6,100 fold
same,inhibition of SARS-CoV-2 infectivity,"[3]; Vero E6, 50 nM",completely inhibited SARS-CoV-2 infectivity
same,inhibition of SARS-CoV-2 infectivity,"[3]; Vero E6, doses greater than 10 nM",complete inhibition of SARS-CoV-2 infectivity
same,basal hepcidin expression,[4]; 18 hr incubation,inhibits basal hepcidin expression
same,BMP6 induced expression of hepcidin,[4]; 24 hr incubation,inhibits BMP6 induced expression of hepcidin
